In patent US4379148A, “Analgesic and anti-inflammatory composition” (priority 1981, dated 1983):
“Also recorded” adds a separate entry of the source.

Tests used:
[1] = Anti-inflammatory Test by Whittle's Method (acetic acid, dye in peritoneal exudate); type: in vivo, Male ddY mice; conditions: for ED30: Mus musculus, po, read-out: ED30 (dose which decreased the amount of dye of the control group by 30%), drug alone; for ED30 dose obtained experimentally, with emorfazone 28.8 / theoretical additive ED30 dose, with emorfazone 28.8 / ED30 dose obtained experimentally, with emorfazone 86 / theoretical additive ED30 dose, with emorfazone 86: p.o.; for ED30 dose obtained experimentally, with emorfazone 28.8 / theoretical additive ED30 dose, with emorfazone 28.8: combined with emorfazone 28.8 mg/kg; for ED30 dose obtained experimentally, with emorfazone 86 / theoretical additive ED30 dose, with emorfazone 86: combined with emorfazone 86 mg/kg
Description: Male ddY mice (18-22 g) fasted for 18 hours were divided into test groups and a control group of 7 or 8 animals each. […] Ten minutes later, 10 ml/kg of 0.7% acetic acid dissolved in physiological saline was injected intraperitoneally into all animals and 20 minutes thereafter the animals were sacrificed. The amount of the dye in the peritoneal exudate was determined at 590 nm by using a spectrophotometer (Hitachi Instrument Co.). The ED30 was defined as the dose which decreased the amount of dye of the control group by 30%, and was determined graphically.

[2] = combination with 100 mg/kg of emorfazone; in words
Description: Female Sprague-Dawley rats (180-220 g) were used. […] On day 0 of the test, the adjuvant containing 0.6 mg of Mycobacterium butylicum (Difco) in 0.1 ml of liquid paraffin was injected into the plantar surface of the right hind paw. The test drugs were administered orally once a day for 15 days. The severity of inflammation of the 4 paws and the tail of each rat was evaluated visually at day 30 and scored by a point system. The grading for each lesion was on a 0 to 3 scale with 0 indicating absence of inflammation and 3 indicating maximum inflammation.

[3] = Analgesic Test by Randall-Selitto Method (carrageenin inflammatory pain); type: in vivo, Male Wistar rats; conditions: for ED50: Rattus norvegicus, po, read-out: ED50 (dose that increased the mean pain threshold of the control group by 50%), drug alone; for ED50 dose obtained experimentally, with emorfazone 4.5 / theoretical additive ED50 dose, with emorfazone 4.5 / ED50 dose obtained experimentally, with emorfazone 9 / theoretical additive ED50 dose, with emorfazone 9: p.o.; for ED50 dose obtained experimentally, with emorfazone 4.5 / theoretical additive ED50 dose, with emorfazone 4.5: combined with emorfazone 4.5 mg/kg; for ED50 dose obtained experimentally, with emorfazone 9 / theoretical additive ED50 dose, with emorfazone 9: combined with emorfazone 9 mg/kg
Description: Male Wistar rats (120-140 g) fasted for 18 hours were divided into test groups and a control group of 5 animals per group. […] The pain threshold was measured after the carrageenin injection at hourly intervals for 3 hours with an analgesy meter (Ugo Basile, Milan).

in vivo = conditions: mouse, po
[4] = Analgesic Test by Phenylquinone Writhing Method; type: in vivo, Male ddY mice; conditions: for ED50: Mus musculus, po, read-out: ED50 (dose that reduced the number of writhes of the control group by 50%), drug alone; for combined analgesic effect with emorfazone: combination with emorfazone, in words; for ED50 dose obtained experimentally, with emorfazone 10 / theoretical additive ED50 dose, with emorfazone 10 / ED50 dose obtained experimentally, with emorfazone 20 / theoretical additive ED50 dose, with emorfazone 20: p.o.; for ED50 dose obtained experimentally, with emorfazone 10: combined with emorfazone 10 mg/kg (1/4 of its ED50); for theoretical additive ED50 dose, with emorfazone 10: combined with emorfazone 10 mg/kg; for ED50 dose obtained experimentally, with emorfazone 20: combined with emorfazone 20 mg/kg (1/2 of its ED50); for theoretical additive ED50 dose, with emorfazone 20: combined with emorfazone 20 mg/kg
Description: Male ddY mice (18-22 g) fasted for 18 hours were divided into test groups and a control group of 7 animals per group. […] The number of writhes was counted for 20 minutes after the p-phenylquinone injection.

[5] = p.o., combined with emorfazone 240 mg/kg
[6] = LD50 dose obtained experimentally, with emorfazone 240, p.o., combined with emorfazone 240 mg/kg

Compound | ED30 [1] [mg/kg] | ED30 dose obtained experimentally, with emorfazone 28.8 [1] [mg/kg] | theoretical additive ED30 dose, with emorfazone 28.8 [1] [mg/kg] | ED30 dose obtained experimentally, with emorfazone 86 [1] [mg/kg] | theoretical additive ED30 dose, with emorfazone 86 [1] [mg/kg] | inhibitory effect in combination with emorfazone [2] | ED50 [3] [mg/kg] | ED50 dose obtained experimentally, with emorfazone 4.5 [3] [mg/kg] | theoretical additive ED50 dose, with emorfazone 4.5 [3] [mg/kg] | ED50 dose obtained experimentally, with emorfazone 9 [3] [mg/kg] | theoretical additive ED50 dose, with emorfazone 9 [3] [mg/kg] | LD50 at 168 h (in vivo) [mg/kg] | LD50 at 168 h (in vivo; [6]) [mg/kg] | ED50 [4] [mg/kg] | combined analgesic effect with emorfazone [4] | ED50 dose obtained experimentally, with emorfazone 10 [4] [mg/kg] | theoretical additive ED50 dose, with emorfazone 10 [4] [mg/kg] | ED50 dose obtained experimentally, with emorfazone 20 [4] [mg/kg] | theoretical additive ED50 dose, with emorfazone 20 [4] [mg/kg] | theoretical additive LD50 dose, with emorfazone 240 [5] [mg/kg]
COc1ccc2c(c1)c(CC(=O)O)c(C)n2C(=O)c1ccc(Cl)cc1 [Indomethacin] | 2.2 | 1.6 | 1.65 | 1 | 1.1 | significantly potentiated | 6.8 | 0.8 | 5.1 | 0.3 | 3.4 | 11.3 | 13 | 0.52 | for the most part a synergistic response | 0.33 | 0.39 | 0.18 | 0.26 | 8.5
CC(C(=O)O)c1cccc(C(=O)c2ccccc2)c1 (centres unmarked) [Ketoprofen] | 3.2 | 2.2 | 2.4 | 1.3 | 1.6 | significantly potentiated | 6 | 3 | 4.5 | 1 | 3 | 305 | 380 | 0.5 | for the most part a synergistic response | 0.37 | 0.38 | 0.23 | 0.25 | –
Cc1cccc(Nc2ccccc2C(=O)O)c1C [Mefenamic acid] | 82 | 60 | 61.5 | 41 | 41 | significantly potentiated | 120 | 58 | 90 | 20 | 60 | – | – | 36 | for the most part a synergistic response | 21 | 27 | 13 | 18 | 892.5
COc1ccc2cc([C@H](C)C(=O)O)ccc2c1 [Naproxen] | 12 | 8.5 | 9 | 5.8 | 6 | significantly potentiated | 240 | 160 | 180 | 60 | 120 | – | – | 9 | for the most part a synergistic response | 6.2 | 6.3 | 4.1 | 4.5 | –
CCCCC1C(=O)N(c2ccccc2)N(c2ccccc2)C1=O [Phenylbutazone] | 175 | 130 | 131.3 | 86 | 87.5 | not essentially affected | 125 | 22 | 93.8 | 19 | 62.5 | – | – | 66 | potentiated by the emorfazone; also recorded: for the most part a synergistic response | 32 | 49.5 | 16 | 33 | 427.5
